From publication PMC11617665, “Virtual and in Vitro Screening Employing a Repurposing Approach Reveal 13‐cis‐Retinoic Acid is a PTP1B Inhibitor” (Chemmedchem, 2024)

Tests used:
[1] = target: T1, PTP1B (Homo sapiens, UniProt P18031); assay: In vitro spectrophotometric PTP1B inhibition assay (pNPP substrate); assay type: biochemical
T1 sequence (P18031 1-435): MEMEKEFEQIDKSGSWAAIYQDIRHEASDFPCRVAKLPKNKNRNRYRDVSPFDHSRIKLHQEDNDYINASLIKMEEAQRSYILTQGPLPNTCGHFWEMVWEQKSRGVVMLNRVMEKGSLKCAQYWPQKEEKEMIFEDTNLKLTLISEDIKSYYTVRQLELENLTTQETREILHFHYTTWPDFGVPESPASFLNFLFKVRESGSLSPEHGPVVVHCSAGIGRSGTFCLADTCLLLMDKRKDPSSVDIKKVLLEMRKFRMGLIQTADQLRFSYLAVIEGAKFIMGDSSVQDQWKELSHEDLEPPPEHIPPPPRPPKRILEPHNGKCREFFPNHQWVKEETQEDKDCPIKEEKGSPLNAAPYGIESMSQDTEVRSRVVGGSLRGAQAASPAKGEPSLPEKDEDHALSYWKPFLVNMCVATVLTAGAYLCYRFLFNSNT
Protocol: The spectrophotometric method previously described was used.[39] The compounds and the positive control were dissolved in dimethylsulfoxide (DMSO). Aliquots of 0–10 μL solution of the compounds to be tested (in triplicate) were incubated with 85 μL of the enzyme (66 nM) in Tris [50 mM; Tris‐HCI Buffer, pH 6.8] and 5 microliters of the substrate (pNPP, 10 mM), for 15 min at 37 °C. After incubation, the absorbance was determined. The inhibitory activity for the compounds was determined as a percentage compared to the blank (Tris) according to the following equation: (1) %PTP1B=1-A415t/A415cX100%
Where %PTP1B is the percentage inhibition, A415t is the corrected absorbance of the tested compound (A415 final‐A415 initial), and A415c is the corrected absorbance of the blank (A415 final blank‐A415 initial target). The IC50 was calculated by regression analysis using the following equation: (2) %Inhibition=A100/1+I/CI50^s

[2] = design: method as in PMID 11375780; details: cited from earlier work
[3] = design: method as in PMID 19961047; details: ingestion during pregnancy or shortly before conception; cited from earlier work
[4] = target: T1, PTP1B; assay: Enzyme kinetics studies, type of inhibition (Lineweaver-Burk); details: for type of inhibition: Lineweaver-Burk plot
Protocol: The assay was carried out with different concentrations of inhibitor (0, 0.005, 0.040 and 0.060 mM) and substrate (0.10, 0.20, 0.30, 0.40, and 0.50 mM). Kinetic parameters (Vmax, Km, and Ki) were obtained by nonlinear regression fit analysis using Origin 2018 software.

CC1=C(/C=C/C(C)=C/C=C/C(C)=C\C(=O)O)C(C)(C)CCC1 [3a, 13‐cis‐retinoic acid]
IC50 ([1]; PTP1B 66 nM, pNPP, Tris pH 6.8, 15 min at 37 °C): 44 µM | inhibitory activity against PTP1B ([1]; compounds evaluated at 2 mM): significant inhibitory activity | DE50 for humans [2]: 0.4 mg/kg | teratogenic effect [3]: teratogen | Ki [4]: 23.4 ± 2 µM | type of inhibition [4]: competitive inhibition | type of inhibition ([4]; listed as 13‐cis‐retinoic acid): competitive PTP1B inhibitor
